Reference: patent publication US12357598B2, “Treatment of neurodevelopmental disorders” (THE REGENTS OF THE UNIVERSITY OF CALIFORNIA, priority 2018, dated 2025)

What was measured:
[1] = system: sEH; assay: Western blot of sEH in brain regions of juvenile offspring after MIA; type: in vivo, mouse
Description: Administration of poly(I:C) into pregnant mice. The schedule of poly(I:C) treatment was performed as reported previously (13,36-39). The pregnant mice were injected intraperitoneally (i.p.) for six consecutive days from E12 to E17 with poly(I:C) (5.0 mg/kg/day, Sigma-Aldrich Co. Ltd., St. Louis, MO, USA) dissolved in physiological saline, or an equivalent volume (5 ml/kg) of saline. The male offspring were separated from their mothers at wearing (P21), and mice were caged each three-five in the groups in clear polycarbonate cage (22.5×33.8×14.0 cm). Mice were housed under controlled temperatures and 12-hour light/dark cycles (lights on between 07:00-19:00 h), with ad libitum food and water.
Collection of brain samples and oxylipin profiling. […]
Western blot analysis. […] 50 μg of protein were measured using the DC protein assay kit (Bio-Rad), and incubated for 5 min at 95° C., with an equal volume of 125 mM Tris-HCl, pH6.8, 20% glycerol, 0.1% bromophenol blue, 10% β-mercaptoethanol, 4% sodium dodecyl sulfate, and subjected to sodium dodecyl sulfate polyacrylamide gel electrophoresis, using 7.5% or AnyKD mini-gels (Mini-PROTEAN® TGX™ Precast Gel; Bio-Rad, CA, USA). […] After final three washes with TBST, bands were detected using enhanced chemiluminescence (ECL) prime Western Blotting Detection system (GE Healthcare Bioscience). […]

[2] = system: Ephx2 mRNA; assay: Quantitative RT-PCR of Ephx2 mRNA after maternal glyphosate exposure; type: in vivo, mouse; details: juvenile offspring (P28) after maternal glyphosate exposure vs water
Description: Gene expression analysis by quantitative real-time PCR. At juvenile (P28) stage, mice were sacrificed, and their brains were removed for measurement of gene expression of Ephx2 mRNA. Brain regions such as PFC, hippocampus, and striatum were dissected from brain on ice. A quantitative RT-PCR system (Step One Plus, Thermo Fisher Scientific, Yokohama, Japan) was used to measure mRNAs. The specific mRNA transcripts were quantified by TaqManGene Expression assays (Thermo Fisher Scientific, Yokohama, Japan). Expression levels of Ephx2 (Mm01313813_m1) was measured in brain tissue. Total RNA was extracted by use of an RNeasy Mini Kit (Qiagen, Hilden, Germany). The purity of total RNA was assessed by Biophotometer plus (Eppendorf, Hamburg, Germany). The RNA samples were used in the first strand cDNA synthesis with High Capacity cDNA Reverse Transcription Kit (#4368813 Thermo Fisher Scientific, Yokohama, Japan). All samples were tested in triplicate and average values were used for quantification. The average values were normalized to Vic-labeled Actb mRNA (Cat #4352341E: pre-developed TaqMan Assay Reagents, Thermo Fisher Scientific, Yokohama, Japan).

Compound	sEH protein in striatum and hippocampus (CA1, CA3, DG) ([1]; poly(I:C) 5 mg/kg/day E12-E17)	levels of sEH protein in the PFC ([1]; poly(I:C) 5 mg/kg/day E12-E17, vs saline-treated mice)	gene expression of sEH (or Ephx2) mRNA in the PFC, hippocampus, and striatum [2]
polyriboinosinic-polyribocytidilic acid [Poly(I:C)]	no changes	significantly higher	
O=C(O)CNCP(=O)(O)O [glyphosate]			significantly higher
